Assay results reported in patent US20250144067A1, “PERSONALIZED STARVATION THERAPY FOR CANCER” (Faeth Therapeutics, Inc., priority 2021, published 2025).
Where a name gives a salt, the structure may show the parent alone. Read-outs that look alike come from different tables or passages of the source.

Legend:
[1] = system: NCI-H292 lung cancer cells; assay: FDA drug screening, complete media vs cholesterol-free media with simvastatin (TABLE 2); assay type: cell-based, human
[2] = system: NCI-H292 lung cancer cells; assay: FDA drug screening, complete media vs cholesterol-free media without statin (TABLE 1); assay type: cell-based, human
[3] = NCI-H292 cells, drug in cholesterol-free media with simvastatin 0.04 μM
[4] = NCI-H292 cells, drug in complete media
[5] = complete media vs cholesterol-free media + simvastatin (0.04 μM), >0 enhanced anti-cancer activity, about 0 neutral, <0 antagonist
[6] = NCI-H292 cells, cholesterol-free media without statin
[7] = complete vs cholesterol-free media, greater than 0 enhanced anti-cancer activity, about 0 neutral, below 0 antagonists
[8] = complete media vs cholesterol-free media + simvastatin (0.04 μM), […]
[9] = Complete minus Cholesterol-free, […]
[10] = NCI-H292 cells, cholesterol-free media without statin, FDA drug library screen
[11] = NCI-H292 cells, complete media, FDA drug library screen
[12] = NCI-H292 cells, cholesterol-free media with simvastatin 0.04 μM, FDA drug library screen (TABLE 2)
[13] = NCI-H292 cells, complete media, FDA drug library screen (TABLE 2)
[14] = complete media minus cholesterol-free media + simvastatin (0.04 μM), >0 enhanced anti-cancer activity, about 0 neutral, <0 antagonist
[15] = Complete minus Cholesterol-free, greater than 0 enhanced anti-cancer activity, about 0 neutral, below 0 antagonist
[16] = NCI-H292 cells, FDA drug library screen, cholesterol-free media without statin
[17] = NCI-H292 cells, FDA drug library screen, complete media
[18] = NCI-H292 cells, FDA drug library screen, cholesterol-free media with simvastatin 0.04 μM
[19] = NCI-H292 cells in cholesterol-free media without statin
[20] = NCI-H292 cells in complete media
[21] = NCI-H292 cells, cholesterol-free media with simvastatin 0.04 μM, cell growth value in FDA drug screen
[22] = NCI-H292 cells, complete media, cell growth value in FDA drug screen
[23] = complete media minus cholesterol-free media + simvastatin, >0 enhanced anti-cancer activity, about 0 neutral, <0 antagonist
[24] = NCI-H292 cells, FDA library drug in cholesterol-free media with simvastatin 0.04 μM
[25] = NCI-H292 cells, FDA library drug in complete media
[26] = complete vs cholesterol-free media, >0 enhanced anti-cancer activity, about 0 neutral, <0 antagonist
[27] = Complete minus Cholesterol-free, >0 enhanced anti-cancer activity, about 0 neutral, <0 antagonist
[28] = complete vs cholesterol-free media, […]

Compound: C[C@]12CCC(=O)C=C1[C@@H]1C[C@@H]1[C@H]1[C@@H]3[C@@H]4C[C@@H]4[C@@]4(CCC(=O)O4)[C@@]3(C)CC[C@@H]12 [Drospirenone]
- Cholesterol-free media + simvastatin (0.04 μM) [1, 3]: 1.4
- Complete Media [1, 4]: 1.139
- Difference [1, 5]: −0.26
- Cholesterol-free [2, 6]: 1.382
- Complete ([2]; NCI-H292 cells, complete media): 1.062
- Difference [2, 7]: −0.32

Compound: CC1(C)[C@@H](O[C@H]2O[C@H](C(=O)[O-])[C@@H](O)[C@H](O)[C@H]2O[C@@H]2O[C@H](C(=O)[O-])[C@@H](O)[C@H](O)[C@H]2O)CC[C@]2(C)[C@H]3C(=O)C=C4[C@@H]5C[C@@](C)(C(=O)O)CC[C@]5(C)CC[C@@]4(C)[C@]3(C)CC[C@@H]12.[K+].[K+] [Dipotassium glycyrrhizinate]
- Cholesterol-free media + simvastatin (0.04 μM) [1, 3]: 1.125
- Complete Media [1, 4]: 0.9331
- Difference [1, 8]: −0.19
- Difference [2, 9]: 0.00
- Cholesterol-free [2, 10]: 1.01
- Complete [2, 11]: 1.007

Compound: O=C(O)C[C@H](O)C[C@H](O)/C=C/c1c(C2CC2)nc2ccccc2c1-c1ccc(F)cc1 [Pitavastatin (Calcium)]
- Cholesterol-free media + simvastatin (0.04 μM) [1, 12]: 0.4883
- Complete Media [1, 13]: 0.4437
- Difference [1, 14]: −0.04
- Difference [2, 15]: −0.07
- Cholesterol-free [2, 16]: 0.4408
- Complete [2, 17]: 0.3693

Compound: Cc1nnc(SCC2=C(C(=O)O)N3C(=O)[C@@H](NC(=O)Cn4cc(Cl)c(=O)c(Cl)c4)[C@H]3SC2)s1 [Cefazedone]
- Cholesterol-free media + simvastatin (0.04 μM) [1, 18]: 1.153
- Complete Media [1, 17]: 1.591
- Difference ([1]; complete media minus cholesterol-free media + simvastatin, […]): 0.44
- Difference [2, 9]: −0.67
- Cholesterol-free [2, 19]: 1.61
- Complete [2, 20]: 0.9409

Compound: CCC[C@@H]1C[C@@H](C(=O)N[C@@H]([C@H]2O[C@H](SC)[C@H](OP(=O)(O)O)[C@@H](O)[C@H]2O)[C@H](C)Cl)N(C)C1 [Clindamycin (phosphate)]
- Cholesterol-free media + simvastatin (0.04 μM) [1, 21]: 1.017
- Complete Media [1, 22]: 1.129
- Difference [1, 23]: 0.11
- Cholesterol-free [2, 6]: 1.342
- Complete ([2]; NCI-H292 cells, complete media): 0.8969
- Difference [2, 7]: −0.44

Compound: Cc1cc(C)cc(OCC2CNC(=O)O2)c1 (centres unmarked) [Metaxalone]
- Cholesterol-free media + simvastatin (0.04 μM) [1, 24]: 1.3
- Complete Media [1, 25]: 1.014
- Difference [1, 5]: −0.29
- Difference ([2]; Complete minus Cholesterol-free, greater than 0 enhanced anti-cancer activity, about 0 neutral, below 0 antagonists): −0.49
- Cholesterol-free [2, 19]: 1.567
- Complete [2, 20]: 1.078

Compound: Cc1c(C(=O)Nc2ccc(N3C[C@@H](C)O[C@@H](C)C3)nc2)cccc1-c1ccc(OC(F)(F)F)cc1 [Sonidegib]
- Cholesterol-free media + simvastatin (0.04 μM) [1, 21]: 1.12
- Complete Media [1, 22]: 1.188
- Difference [1, 23]: 0.07
- Cholesterol-free [2, 10]: 0.6523
- Complete [2, 11]: 0.8188
- Difference [2, 26]: 0.17

Compound: N#Cc1ccc2[nH]cc(CCCCN3CCN(c4ccc5oc(C(N)=O)cc5c4)CC3)c2c1 [Vilazodone (Hydrochloride)]
- Cholesterol-free media + simvastatin (0.04 μM) [1, 18]: 0.5785
- Complete Media [1, 17]: 0.8037
- Difference [1, 23]: 0.23
- Cholesterol-free [2, 6]: 1.019
- Complete ([2]; NCI-H292 cells, complete media): 0.6984
- Difference [2, 7]: −0.32

Compound: CN1C(=O)/C(=C2/C(=O)Nc3ccccc32)c2ccccc21 [Meisoindigo]
- Cholesterol-free media + simvastatin (0.04 μM) [1, 18]: 0.9145
- Complete Media [1, 17]: 1.461
- Difference [1, 23]: 0.55
- Cholesterol-free [2, 10]: 0.8169
- Complete [2, 11]: 1.238
- Difference [2, 26]: 0.42

Compound: CC1(C)CCC[C@](C)([C@H]2CC[C@]3(C)[C@@H]2[C@H](O)C[C@@H]2[C@@]4(C)CC[C@H](O)C(C)(C)[C@@H]4[C@@H](O)C[C@]23C)O1 [Panaxatriol]
- Cholesterol-free media + simvastatin (0.04 μM) [1, 18]: 1.085
- Complete Media [1, 17]: 0.956
- Difference [1, 8]: −0.13
- Difference [2, 9]: −0.09
- Cholesterol-free [2, 16]: 1.136
- Complete [2, 17]: 1.044

Compound: O=c1[nH]c(=O)n([C@H]2C[C@H](O)[C@@H](CO)O2)cc1C(F)(F)F [Trifluridine]
- Cholesterol-free media + simvastatin (0.04 μM) [1, 12]: 0.1119
- Complete Media [1, 13]: 0.1066
- Difference [1, 14]: −0.01
- Difference [2, 15]: −0.14
- Cholesterol-free [2, 16]: 0.2875
- Complete [2, 17]: 0.145

Compound: NC(=O)CN1CC(O)CC1=O (centres unmarked) [Oxiracetam]
- Cholesterol-free media + simvastatin (0.04 μM) [1, 24]: 1.234
- Complete Media [1, 25]: 0.9456
- Difference [1, 5]: −0.29
- Difference [2, 27]: −0.22
- Cholesterol-free [2, 6]: 1.104
- Complete ([2]; NCI-H292 cells, complete media): 0.8826

Compound: COc1ccc2cc1Oc1ccc(cc1)C[C@H]1c3c(cc4c(c3Oc3cc5c(cc3OC)CCN(C)[C@@H]5C2)OCO4)CCN1C [cepharanthine, reference compound]
- Cholesterol-free media + simvastatin (0.04 μM) [1, 18]: 0.1249
- Complete Media [1, 17]: 1.4
- Difference [1, 23]: 1.27
- Difference [2, 27]: 0.04
- Cholesterol-free [2, 10]: 1.12
- Complete [2, 11]: 1.159

Compound: CS(=O)(=O)c1cccc(C[C@H](NC(=O)c2c(Cl)cc3c(c2Cl)CCN(C(=O)c2ccc4ccoc4c2)C3)C(=O)O)c1 [Lifitegrast]
- Cholesterol-free media + simvastatin (0.04 μM) [1, 18]: 1.009
- Complete Media [1, 17]: 0.8652
- Difference [1, 5]: −0.14
- Difference [2, 15]: −0.15
- Cholesterol-free [2, 16]: 1.11
- Complete [2, 17]: 0.9552

Compound: Prednisolone (hemisuccinate)
- Cholesterol-free media + simvastatin (0.04 μM) [1]: 0.7218
- Difference [1]: 0.06
- Cholesterol-free [2]: 0.8784
- Complete [2]: 0.4751
- Difference [2]: −0.40

Compound: CCN[C@H]1C[C@H](C)S(=O)(=O)c2sc(S(N)(=O)=O)cc21 [Dorzolamide (hydrochloride)]
- Cholesterol-free media + simvastatin (0.04 μM) [1, 24]: 0.9476
- Complete Media [1, 25]: 0.6459
- Difference [1, 5]: −0.30
- Difference [2, 15]: −0.11
- Cholesterol-free [2, 16]: 1.045
- Complete [2, 17]: 0.9378

Compound: CC1(C)C(C=C(Cl)Cl)C1C(=O)OCc1cccc(Oc2ccccc2)c1 (centres unmarked) [Permethrin]
- Cholesterol-free media + simvastatin (0.04 μM) [1, 24]: 1.233
- Complete Media [1, 25]: 0.8994
- Difference [1, 8]: −0.33
- Cholesterol-free [2, 6]: 1.352
- Complete ([2]; NCI-H292 cells, complete media): 0.9496
- Difference [2, 28]: −0.40

Compound: C=C1C[C@H]2[C@@H]3CCC4=CC(=O)CC[C@@H]4[C@H]3CC[C@]2(C)[C@@]1(OC(C)=O)C(C)=O [Nestoron]
- Cholesterol-free media + simvastatin (0.04 μM) [1, 12]: 0.9628
- Complete Media [1, 13]: 0.9132
- Difference ([1]; complete media minus cholesterol-free media + simvastatin (0.04 μM), […]): −0.05
- Cholesterol-free [2, 6]: 1.481
- Complete ([2]; NCI-H292 cells, complete media): 1.095
- Difference [2, 28]: −0.39

Compound: c1ccc2c(CC3=NCCN3)cccc2c1 [Naphazoline (hydrochloride)]
- Cholesterol-free media + simvastatin (0.04 μM) [1, 12]: 0.7495
- Complete Media [1, 13]: 0.6802
- Difference [1, 14]: −0.07
- Difference [2, 27]: −0.26
- Cholesterol-free [2, 6]: 1.189
- Complete ([2]; NCI-H292 cells, complete media): 0.9279

Compound: CNCc1cc(-c2ccccc2F)n(S(=O)(=O)c2cccnc2)c1 [Vonoprazan]
- Cholesterol-free media + simvastatin (0.04 μM) [1, 24]: 1.249
- Complete Media [1, 25]: 0.8473
- Difference [1, 5]: −0.40
- Difference [2, 15]: −0.07
- Cholesterol-free [2, 16]: 1.105
- Complete [2, 17]: 1.031
